From publication PMC6060382, “Inhibition of α-, β-, γ-, and δ-carbonic anhydrases from bacteria and diatoms with N′-aryl-N-hydroxy-ureas” (Journal of Enzyme Inhibition and Medicinal Chemistry, 2018) come the findings set out here.

Test in all cases: stopped-flow CO2 hydrase assay
For one experiment, the target named is T1, VchCAα (Vibrio cholerae, UniProt Q9KMP6).
T1 construct: gene VC_A0274
In kind it is biochemical. The conditions noted are these: read-out: VchCAα; CO2 hydration, 10 mM HEPES pH 7.5, 0.1 M Na2SO4, 25 °C, 15 min preincubation.

The next experiment addresses T2, PgiCAγ.
T2 construct: gene PgiCA
Type of experiment: biochemical, Porphyromonas gingivalis. Particulars: CO2 hydration, 10 mM Tris pH 8.3, 0.1 M Na2SO4, 25 °C, 15 min preincubation.

The next experiment addresses T3, VchCAγ (Vibrio cholerae, UniProt Q9KVT1).
T3 construct: gene VC_0058
Type of experiment: biochemical. The conditions noted are these: CO2 hydration, 10 mM Tris pH 8.3, 0.1 M Na2SO4, 25 °C, 15 min preincubation.

A further experiment concerns the target T4, PgiCAβ (Porphyromonas gingivalis, UniProt B2RL07).
T4 construct: gene PGN_1533
T4 sequence (B2RL07 19-242): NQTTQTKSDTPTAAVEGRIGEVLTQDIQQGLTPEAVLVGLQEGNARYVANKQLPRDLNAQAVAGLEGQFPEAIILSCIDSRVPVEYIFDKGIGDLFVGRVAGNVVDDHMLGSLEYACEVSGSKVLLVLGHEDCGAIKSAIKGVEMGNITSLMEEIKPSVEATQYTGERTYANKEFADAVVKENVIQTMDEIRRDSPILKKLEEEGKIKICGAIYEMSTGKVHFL
Type of experiment: biochemical. The conditions noted are these: CO2 hydration, 10 mM Tris pH 8.3, 0.1 M Na2SO4, 25 °C, 15 min preincubation.

The next experiment has as its target T5, TweCAδ (Conticribra weissflogii, UniProt Q5U9J1).
T5 construct: gene ca1
T5 sequence (Q5U9J1 1-281): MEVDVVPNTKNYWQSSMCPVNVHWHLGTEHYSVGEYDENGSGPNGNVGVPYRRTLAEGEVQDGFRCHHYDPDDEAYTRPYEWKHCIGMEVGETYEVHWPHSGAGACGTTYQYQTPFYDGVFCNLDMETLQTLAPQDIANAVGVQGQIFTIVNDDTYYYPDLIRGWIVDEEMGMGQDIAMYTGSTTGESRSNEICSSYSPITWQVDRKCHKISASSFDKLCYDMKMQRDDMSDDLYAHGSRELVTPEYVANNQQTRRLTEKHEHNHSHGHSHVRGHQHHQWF
Type of experiment: biochemical. The conditions noted are these: CO2 hydration, 10 mM HEPES pH 7.5, 0.1 M Na2SO4, 25 °C, 15 min preincubation.

In the next experiment the target is T6, VchCAβ (Vibrio cholerae, UniProt Q9KUD6).
T6 construct: gene VC_0586
Type of experiment: biochemical.

Read-outs that look alike come from different tables or passages of the source.

T1 sequence (Q9KMP6 21-239 limits assumed): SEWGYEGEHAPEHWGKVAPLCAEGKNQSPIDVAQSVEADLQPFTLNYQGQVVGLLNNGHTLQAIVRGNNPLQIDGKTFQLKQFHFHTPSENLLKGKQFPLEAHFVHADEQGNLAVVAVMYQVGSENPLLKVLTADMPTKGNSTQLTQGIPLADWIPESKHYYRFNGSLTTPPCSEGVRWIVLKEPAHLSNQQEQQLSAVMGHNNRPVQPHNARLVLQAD
T3 sequence (Q9KVT1 1-184): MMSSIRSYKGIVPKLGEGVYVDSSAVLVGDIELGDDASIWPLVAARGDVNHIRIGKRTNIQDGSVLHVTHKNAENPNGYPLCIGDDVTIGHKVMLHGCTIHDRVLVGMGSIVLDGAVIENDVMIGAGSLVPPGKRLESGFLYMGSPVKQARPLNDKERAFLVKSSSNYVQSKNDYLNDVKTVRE
T6 sequence (Q9KUD6 1-222): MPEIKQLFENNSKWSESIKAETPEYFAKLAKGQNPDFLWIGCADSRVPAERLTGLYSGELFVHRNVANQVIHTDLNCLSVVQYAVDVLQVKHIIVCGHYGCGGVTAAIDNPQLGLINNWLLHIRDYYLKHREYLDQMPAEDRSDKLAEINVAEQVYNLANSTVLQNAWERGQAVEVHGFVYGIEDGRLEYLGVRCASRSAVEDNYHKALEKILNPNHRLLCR

For the compound `O=C(NO)Nc1ccccc1` [compound 1, 1: H], the Ki is 7.26 µM on VchCAα; 6.42 µM on PgiCAγ (read-out: PgiCAγ); greater than 10 µM on VchCAγ (read-out: VchCAγ); greater than 10 µM on PgiCAβ (read-out: VchCAγ); greater than 10 µM on TweCAδ (read-out: VchCAγ); 1.81 µM at VchCAβ (read-out: VchCAβ).

`Cc1ccc(NC(=O)NO)cc1` [compound 2, 2: 4-CH3]: the Ki on VchCAα was 0.111 µM; at PgiCAγ (read-out: PgiCAγ), 0.298 µM; at VchCAγ (read-out: VchCAγ) it was greater than 10 µM; at PgiCAβ (read-out: VchCAγ), greater than 10 µM; at TweCAδ (read-out: VchCAγ), greater than 10 µM; on VchCAβ (read-out: VchCAβ), 0.483 µM.

Regarding `Cc1ccccc1NC(=O)NO` [compound 3, 3: 2-CH3], the Ki at VchCAα is 0.829 µM; at PgiCAγ (read-out: PgiCAγ), 4.21 µM; on VchCAγ (read-out: VchCAγ), greater than 10 µM; on PgiCAβ (read-out: VchCAγ), greater than 10 µM; at TweCAδ (read-out: VchCAγ), greater than 10 µM; at VchCAβ (read-out: VchCAβ), 0.377 µM.

`O=C(NO)Nc1ccc(Cl)cc1` [compound 4, 4: 4-Cl]: the Ki at VchCAα is 4.41 µM; at PgiCAγ (read-out: PgiCAγ) it was 0.934 µM; at VchCAγ (read-out: VchCAγ), greater than 10 µM; on PgiCAβ (read-out: VchCAγ), greater than 10 µM; on TweCAδ (read-out: TweCAδ) it was 8.74 µM; at VchCAβ (read-out: VchCAβ), 0.541 µM.

In the case of `O=C(NO)Nc1ccccc1Cl` [compound 5, 5: 2-Cl], the Ki at VchCAα is 5.94 µM; on PgiCAγ (read-out: PgiCAγ), 3.03 µM; at VchCAγ (read-out: VchCAγ) it was greater than 10 µM; on PgiCAβ (read-out: VchCAγ), greater than 10 µM; on TweCAδ (read-out: VchCAγ), greater than 10 µM; at VchCAβ (read-out: VchCAβ) it was 0.0642 µM.

Consider `O=C(NO)Nc1cccc(Cl)c1` [compound 6, 6: 3-Cl], for which the Ki on VchCAα was 4 µM; at PgiCAγ (read-out: PgiCAγ), 0.819 µM; at VchCAγ (read-out: VchCAγ), greater than 10 µM; at PgiCAβ (read-out: VchCAγ) it was greater than 10 µM; on TweCAδ (read-out: VchCAγ), greater than 10 µM; at VchCAβ (read-out: VchCAβ), 0.0603 µM.

On to `O=C(NO)Nc1ccc([N+](=O)[O-])cc1` [compound 7, 7: 4-O2N], for which the Ki at VchCAα was 0.509 µM; on PgiCAγ (read-out: PgiCAγ), 2.7 µM; at VchCAγ (read-out: VchCAγ), greater than 10 µM; on PgiCAβ (read-out: VchCAγ) it was greater than 10 µM; on TweCAδ (read-out: VchCAγ), greater than 10 µM; on VchCAβ (read-out: VchCAβ) it was 0.0541 µM.

`O=C(NO)Nc1ccccc1[N+](=O)[O-]` [compound 8, 8: 2-O2N]: the Ki on VchCAα was 0.536 µM; on PgiCAγ (read-out: PgiCAγ) it was 0.0823 µM; on VchCAγ (read-out: VchCAγ) it was 5.69 µM; on PgiCAβ (read-out: PgiCAβ), greater than 10 µM; on TweCAδ (read-out: PgiCAβ), greater than 10 µM; on VchCAβ (read-out: VchCAβ) it was 0.0525 µM.

Take `Cc1ccc(C)c(NC(=O)NO)c1` [compound 9, 9: 2,5-Me2]: the Ki on VchCAα is 0.0975 µM; at PgiCAγ (read-out: PgiCAγ), 0.0844 µM; on VchCAγ (read-out: VchCAγ) it was 5.5 µM; on PgiCAβ (read-out: PgiCAβ), greater than 10 µM; at TweCAδ (read-out: PgiCAβ), greater than 10 µM; at VchCAβ (read-out: VchCAβ) it was 0.0593 µM.

Turning to `O=C(NO)Nc1ccc(F)cc1` [compound 10, 10: 4-F], the Ki at VchCAα, on PgiCAγ (read-out: VchCAα), at VchCAγ (read-out: VchCAα), at PgiCAβ (read-out: VchCAα) and on TweCAδ (read-out: VchCAα) was greater than 10 µM in each case.

Consider `CCOC(=O)c1cccc(NC(=O)NO)c1` [compound 11, 11: 3-EtOOC], for which the Ki at VchCAα was greater than 10 µM; at PgiCAγ (read-out: VchCAα) it was greater than 10 µM; on VchCAγ (read-out: VchCAα) it was greater than 10 µM; on PgiCAβ (read-out: VchCAα), greater than 10 µM; at TweCAδ (read-out: TweCAδ) it was 8.49 µM; on VchCAβ (read-out: VchCAα), greater than 10 µM.

On to `Cc1cc(C)cc(NC(=O)NO)c1` [compound 12, 12: 3,5-Me2], for which the Ki on VchCAα was greater than 10 µM; on PgiCAγ (read-out: PgiCAγ), 5.49 µM; at VchCAγ (read-out: VchCAα), greater than 10 µM; on PgiCAβ (read-out: VchCAα), greater than 10 µM; at TweCAδ (read-out: TweCAδ) it was 0.0578 µM; at VchCAβ (read-out: VchCAα) it was greater than 10 µM.

For `CCOc1ccccc1NC(=O)NO` [compound 13, 13: 2-EtO], the Ki was greater than 10 µM at VchCAα; greater than 10 µM on PgiCAγ (read-out: PgiCAγ); greater than 10 µM on PgiCAβ (read-out: VchCAα); 0.0333 µM at TweCAδ (read-out: TweCAδ); greater than 10 µM at VchCAβ (read-out: VchCAα).

`CSc1cccc(NC(=O)NO)c1` [compound 14, 14: 3-MeS]: the Ki at VchCAα was greater than 10 µM; at PgiCAγ (read-out: PgiCAγ), 0.0598 µM; on PgiCAβ (read-out: VchCAα), greater than 10 µM; on TweCAδ (read-out: TweCAδ), 0.052 µM; on VchCAβ (read-out: VchCAα), greater than 10 µM.

With `Cc1cc(NC(=O)NO)ccc1F` [compound 15, 15: 4-F-3-Me], the Ki at VchCAα is greater than 10 µM; on PgiCAγ (read-out: PgiCAγ) it was 2.88 µM; at VchCAγ (read-out: VchCAα), greater than 10 µM; at PgiCAβ (read-out: VchCAα) it was greater than 10 µM; at TweCAδ (read-out: TweCAδ) it was 3.94 µM; at VchCAβ (read-out: VchCAα), greater than 10 µM.

With `O=C(NO)Nc1c(F)c(F)c(F)c(F)c1F` [compound 16, 16: F5], the Ki is greater than 10 µM at VchCAα; 3.48 µM on PgiCAγ (read-out: PgiCAγ); greater than 10 µM on VchCAγ (read-out: VchCAα); greater than 10 µM on PgiCAβ (read-out: VchCAα); 3.41 µM at TweCAδ (read-out: TweCAδ); greater than 10 µM on VchCAβ (read-out: VchCAα).

Regarding `O=C(NO)Nc1ccc(C(F)(F)F)cc1` [compound 17, 17: 4-CF3], the Ki was greater than 10 µM at VchCAα; 2.63 µM at PgiCAγ (read-out: PgiCAγ); greater than 10 µM at VchCAγ (read-out: VchCAα); greater than 10 µM at PgiCAβ (read-out: VchCAα); 4.64 µM on TweCAδ (read-out: TweCAδ); greater than 10 µM at VchCAβ (read-out: VchCAα).

For `O=C(NO)Nc1ccc(C(F)(F)F)cc1Cl` [compound 18, 18: 4-CF3-2-Cl], the Ki at VchCAα was greater than 10 µM; on PgiCAγ (read-out: VchCAα), greater than 10 µM; at VchCAγ (read-out: VchCAγ), 5.43 µM; on TweCAδ (read-out: TweCAδ) it was 0.856 µM; on VchCAβ (read-out: VchCAα), greater than 10 µM.

`COc1ccccc1NC(=O)NO` [compound 19, 19: 2-MeO]: the Ki is greater than 10 µM on VchCAα; greater than 10 µM on PgiCAγ (read-out: VchCAα); 4.75 µM at VchCAγ (read-out: VchCAγ); 2.88 µM on TweCAδ (read-out: TweCAδ); greater than 10 µM at VchCAβ (read-out: VchCAα).

Take `O=C(NO)Nc1ccc(Oc2ccccc2)cc1` [compound 20, 20: 4-PhO]: the Ki at VchCAα was greater than 10 µM; on PgiCAγ (read-out: VchCAα) it was greater than 10 µM; at VchCAγ (read-out: VchCAα), greater than 10 µM; at TweCAδ (read-out: TweCAδ), 0.761 µM; at VchCAβ (read-out: VchCAα), greater than 10 µM.
